Test system: caspase-3/7
Assay: In vivo bioluminescent imaging of VivoGlo Caspase-3/7 substrate and caspase-3/7 inactive substrate(s)
Details: mice bearing tumors stably expressing luciferase, treated with apoptosis-inducing cytotoxic therapy (e.g. docetaxel); substrate 62.5 mg/mL intraperitoneally; detected 5-30 minutes post injection
Procedure: In luciferase-expressing cells undergoing apoptosis, caspase-3/7 will cleave the DEVD peptide from the VivoGlo™ Caspase-3/7 substrate, allowing it to be a substrate for luciferase photon production. […] The photon emission will be detected with a photodetector device at timepoints from 5-30 minutes post injection and quantified.

**Q.** For “Z-DEVD-aminoluciferin [VivoGlo Caspase-3/7]”, which “bioluminescent signal (photon emission)” value is on record?
**A.** significant bioluminescent signal

Source: patent US20090238766A1, “BIOLUMINESCENT CONSTRUCT” (ABBOTT LABORATORIES, priority 2008, published 2009)
